Where two headings read alike, the source gives them in different places.
Legend:
[1] = system: Cytiva hSCCMs; test: SALVO profiling of drug-evoked Ca2+ signal perturbation (fluo-4 confocal imaging)
Source text: Cytiva hSCCMs were derived from monolayer differentiation of an H7 hESC cell line that had been expanded under feeder-free conditions and then subjected to a proprietary differentiation protocol (GE Healthcare, Piscataway, NJ, USA).[13] […] Cells were thawed and seeded into 7-mm^2 chambers created by the adherence of silicon gaskets (CultureWell MultiWell 3 mm in diameter, 1-mm-depth inserts [Life Technologies]) on glass-bottomed culture chambers (In Vitro Scientific, Sunnyvale, CA, USA) that had been precoated with Matrigel (BD Biosciences, Franklin Lakes, NJ, USA), Franklin Lakes, NJ, USA diluted 1:30 (v/v) in Knockout DMEM (Life Technologies, Carlsbad, CA, USA). […] Cells were allowed to adhere to the coverslip for 2 h before the dish was filled with RPMI/B27 (2 mL). Medium was exchanged every 48 h.
Cells were incubated with fluo-4 AM (5 µM) (Life Technologies) for 1 h at 37°C before coverslips were flooded with RPMI/B27 (2 mL). […] Cells were maintained at 37 °C throughout experiments. […] The application of caffeine (5 mM final concentration) was used to trigger sarcoplasmic reticulum (SR) Ca^2+ release and thereby estimate the intra-SR Ca^2+ store load.
Taking our lead from Uhlen’s method of using spectral analysis to investigate the organization of Ca^2+ signals,[14] we developed SALVO to decode the spatiotemporal patterning of Ca^2+ oscillations within individual cells and across multicellular populations. SALVO outputs 30 parameters that describe Ca^2+ signal organization,[15] but for the purposes of this study, we focused on five parameters: oscillation rate (rate, Hz) and four other parameters that quantify the amplitude and temporal patterning of Ca^2+ oscillation: (1) amplitude heterogeneity index (AHI) and (2) temporal heterogeneity index (THI), statistical assessments of signal amplitude and temporal variability within single cells, respectively; (3) intertransient noise (ITN), defined as the Ca^2+ signal variability occurring between Ca^2+ oscillations and that extends the use of signal variability (SV) to measure point-by-point differences in very low-amplitude Ca^2+ signals[6],[10],[12]; and (4) synchronization, an index of the temporal coincidence of Ca^2+ oscillation maxima occurring across cells in the population. The calculation of these parameters is described in Supplementary Figure S1. SALVO is implemented using a Python-based computer program.[15] The detection of signal maxima and minima over a 30-s period in data obtained from 6 to 20 cells in each instance was performed using SALVO’s autodetection algorithms (based on spline detect or threshold detection methods) or by manual assignation of the start, peak, and end of each Ca^2+ spike. SALVO outputs were archived and interrogated using a custom-built SQL-based database system (DB Miner, CHG, NCS, SBJ).
Baseline assessments of Ca^2+ signals in fluo-4–loaded cells prior to the addition of drug (control) were established as described above.
After each addition and following a period of equilibration (approximately 90 s), fluo-4–dependent Ca^2+ signals were acquired for 30 s. Using this protocol, the same population of cells was imaged throughout the entire drug addition sequence.
In all experiments, operators were blinded to the identities of the drugs under test throughout all phases of postexperimental data analysis.
Supplementary Table 2. EC20 values for Ca2+ perturbation.
Drug concentrations (nM) that produced a 20% change from control values (no drug) were calculated for each SALVO parameter from regression analysis of […]
The effective therapeutic plasma concentration of free drug (ETPCunbound, nM) was calculated in Supplementary Table 1.
Calculate percentage effect size (E) for each SALVO parameter, normalized to Ew = E x λ control conditions, at each drug concentration Effect size (E,%) λ
Cumulative Ew for drug concentrations of 0.1, 1, 10, 100 and 1000 nM for The relationship between E and λ is given by […]

[2] = system: Cytiva hSCCMs; test: Whole-cell current-clamp recording of spontaneous action potentials (APD90); type: cell-based, human; settings: drug at EC20 concentration, 3 min; Fridericia-corrected; blebbistatin-immobilized cells
Method: Cells in 35-mm glass-bottomed culture dishes containing a superfusion insert (AutoMate PCP-1; Digitimer Ltd., Welwyn Garden City, UK) were mounted on the stage of an inverted microscope (CKX-41; Olympus, Tokyo, Japan) and were superfused with normal Tyrode (NT) solution (containing [in mM] NaCl, KCl, MgCl2 [1], CaCl2 [2], HEPES [10], glucose; pH 7.4 with NaOH) or NT-containing drugs maintained at 37 °C using a heated jacket.
Cells were whole-cell clamped with 3- to 4-MΩ patches and an intrapipette solution (containing in [mM] KCl, MgCl2 [1.75], CaCl2 [5.37], EGTA [10], HEPES [10], and Na2ATP [4]; pH 7.2 with KOH) in current-clamp (IC) mode using a CV-7B headstage and MultiClamp 700B amplifier controlled by MultiClamp software (Molecular Devices, Sunnyvale, CA). Data were digitized and acquired using a Digidata 1322a card and pClamp software, respectively (Molecular Devices). Action potentials were sampled at a rate of 20 kHz and low pass (Bessel) filtered at 10 kHz.
Spontaneous cell contracture was terminated using blebbistatin (5 µM, 10 min), an agent that inhibits myofilament shortening and thereby negates patch-clamp recording instability but preserves normal Ca^2+ cycling.[20] […] Action potential (AP) recordings from blebbistatin-immobilized cells were taken under control (no-drug) conditions (1 min) and following the switch to drug-containing NT. APD90, corrected for AP cycle length using Fridericia’s method (APD90(corr) = APD90/cycle length^[…]), was calculated from five consecutive APs following a 3-min exposure of the cells to drug.
Figure 4. Investigating the effect of cardiovascular-active drugs on Cytiva APD90. (A) Cells were exposed to drugs at EC20 concentrations for 3 min (Suppl. Table S2). APD90 values were corrected for beat period using Fridericia’s algorithm. Data points represent individual paired experiments (n = 6). Representative control (gray) and drug-treated (black) action potential traces are shown. (B) APD90 plotted as the percentage change relative to the paired control value (no drug). *p < 0.05. **p < 0.01.

[3] = Effective therapeutic plasma concentration (ETPC, ETPCunbound); type: in vivo, human; settings: free plasma concentration calculated from ETPC and free drug %, Supplementary Table 1
Source text: There is also the issue regarding the relevance of drug potency determined in vitro to clinical dosing in humans. Guo and colleagues[25],[27] used an impedance-derived index of arrhythmic beating in hSCCMs to derive a predicted proarrhythmic score (PPS) that took into account the therapeutically relevant total concentration of drug in human plasma (defined as Ceff). More recently, Clements and Thomas[13] used a similar approach to generate a predictive risk score (PRS) based on their measurement of field potential duration (FPD) in Cytiva.
Supplementary Table 1. Calculating the free plasma concentration of […]
described by Redfern et al. (Redfern et al. (2003) Cardiovasc. Res. 58:32-45) was used to calculate the levels of free drug (ETPCunbound). ETPC for nadolol and valdecoxib were from Krukemyer et al. (Pharm. Res. (1990) 9:953-956) and Yuan et al. (Drug Metab. Disp. (2002) 30:1013-1021), respectively. The values for drug-protein binding were obtained from DrugBank (www.drugbank.ca).

[4] = maximal effective therapeutic plasma concentration, cited from earlier work
[5] = set-up: method as in DrugBank (www.drugbank.ca); settings: from drug-protein binding values; ref DrugBank (www.drugbank.ca); cited from earlier work
[6] = cited from earlier work; for TdP risk category: categories assigned by Redfern and colleagues
[7] = 20% change from control in amplitude heterogeneity index, regression of Figure 3 data
[8] = 20% change from control in intercellular synchronization, regression of Figure 3 data
[9] = 20% change from control in intertransient noise, regression of Figure 3 data
[10] = 20% change from control in temporal heterogeneity index, regression of Figure 3 data
[11] = drug concentration producing a 20% change from control (no drug) in Ca2+ oscillation rate, regression of Figure 3 data
[12] = five-parameter SALVO output integrated over 0.1-1000 nM, normalized to control
[13] = spontaneously oscillating Cytiva, concentrations up to 30 µM
[14] = spontaneously oscillating Cytiva

Structure (SMILES) | EC20 AHI [1, 7] [µM] | EC20 Synch [1, 8] [µM] | EC20 ITN [1, 9] [µM] | EC20 THI [1, 10] [µM] | EC20 Rate [1, 11] [µM] | SALVO toxicity score, rank order of the extent of Ca2+ perturbation [1, 12] | Effect on Ca2+ handling (SALVO parameters) [1, 13] | Effect on APD90 (action potential duration) [2] | ETPCunbound [3] [nM] | TdP risk category [6] | other results
O=C(NCC1CCCCN1)c1cc(OCC(F)(F)F)ccc1OCC(F)(F)F (centres unmarked) [Flecainide, flecainide] | 0.26 | > 30 | 2.11 | 0.285 | 0.215 | astemizole > thioridazine > cisapride > flecainide > valdecoxib > sotalol > nadolol | large effect sizes in multiple parameters | no effect | 1159 |  | Predicted proarrhythmic score (PPS) ([1]; PPS = ETPCunbound/EC20): elevated PPS
CC(C)(C)NCC(O)COc1cccc2c1CC(O)C(O)C2 (centres unmarked) [Nadolol, nadolol] | > 30 | > 30 | > 30 | > 30 | > 30 | astemizole > thioridazine > cisapride > flecainide > valdecoxib > sotalol > nadolol | no measurable effect |  | 271 | category 5 | ETPC ([4]; ref Krukemyer et al. (Pharm. Res. (1990) 9:953-956)): 387 nM; Free drug [5]: 70%
COc1ccccc1OCC(O)CN1CCN(CC(=O)Nc2c(C)cccc2C)CC1 (centres unmarked) [Ranolazine, ranolazine] |  |  |  |  |  |  | unchanged Ca^2+ cycling |  |  |  | Effect on intercellular synchronization [1, 14]: reduced intercellular synchronization
CC(C)NCC(O)c1ccc(NS(C)(=O)=O)cc1 (centres unmarked) [Sotalol, sotalol] | 0.21 | > 30 | > 30 | > 30 | > 30 | astemizole > thioridazine > cisapride > flecainide > valdecoxib > sotalol > nadolol |  |  | 14733 |  | Predicted proarrhythmic score (PPS) ([1]; PPS = ETPCunbound/EC20): ~ 15; Concentration causing an isolated change in AHI [1, 14]: > 1 µM; Effect on intercellular synchronization [1, 14]: did not reduce the extent of intercellular synchronization; ETPCunbound ([3]; listed as sotalol): 14,733 nM; ETPC ([4]; ref Redfern et al. (2003) Cardiovasc. Res. 58:32-45): 14733 nM; Therapeutic plasma concentration with QT-prolonging effects ([6]; reported, no reference given): exceeding 10 µM
CSc1ccc2c(c1)N(CCC1CCCCN1C)c1ccccc1S2 (centres unmarked) [Thioridazine, thioridazine] | 0.205 | 0.12 | 0.11 | 0.53 | 1.12 | astemizole > thioridazine > cisapride > flecainide > valdecoxib > sotalol > nadolol | large effect sizes in multiple parameters | increased APD90 | 89 |  | PPS rank order ([1]; PPS = ETPCunbound/EC20): thioridazine > cisapride > valdecoxib
Cc1onc(-c2ccccc2)c1-c1ccc(S(N)(=O)=O)cc1 [Valdecoxib, valdecoxib] |  |  |  |  |  |  |  | no effect | 45 |  | EC20 AHI [1]: 0.685 µM; EC20 ITN [1]: > 30 µM; EC20 Rate [1]: 9.87 µM; EC20 Synch [1]: > 30 µM; EC20 THI [1]: 12.8 µM; Effect on Ca2+ handling (SALVO parameters) [1]: large effect sizes in multiple parameters; PPS rank order [1]: thioridazine > cisapride > valdecoxib; SALVO toxicity score, rank order of the extent of Ca2+ perturbation [1]: astemizole > thioridazine > cisapride > flecainide > valdecoxib > sotalol > nadolol; ETPC ([4]; ref Yuan et al. (Drug Metab. Disp. (2002) 30:1013-1021)): 2257 nM; Free drug [5]: 2%
COc1ccc(CCN(C)CCCC(C#N)(c2ccc(OC)c(OC)c2)C(C)C)cc1OC (centres unmarked) [Verapamil, verapamil] |  |  |  |  |  |  | no measurable effect |  |  |  | Concentration reducing the rate of Ca2+ oscillation [1, 14]: > 10 µM
CCCCc1oc2ccccc2c1C(=O)c1cc(I)c(OCCN(CC)CC)c(I)c1 [amiodarone] |  |  |  |  |  |  |  |  |  | category 1 | 
CC(CC(c1ccccc1)c1ccccc1)NC(C)(C)C (centres unmarked) [terodiline] |  |  |  |  |  |  |  |  |  | category 2 | 

From article PMC4361473, “A New System for Profiling Drug-Induced Calcium Signal Perturbation in Human Embryonic Stem Cell–Derived Cardiomyocytes” (Journal of Biomolecular Screening, 2015)
